Tests used:
Type in all cases: cell-based, murine and human
Settings in all cases: 20-24 hours
[1] = molecular target: T1, PPAR-alpha ligand binding domain fused to GAL4 DNA binding domain (UniProt Q07869); experiment: Transient transfection transactivation assay in CV-1 cells, PPAR-alpha (GAL4 chimera, luciferase reporter)
T1 sequence (Q07869 1-468): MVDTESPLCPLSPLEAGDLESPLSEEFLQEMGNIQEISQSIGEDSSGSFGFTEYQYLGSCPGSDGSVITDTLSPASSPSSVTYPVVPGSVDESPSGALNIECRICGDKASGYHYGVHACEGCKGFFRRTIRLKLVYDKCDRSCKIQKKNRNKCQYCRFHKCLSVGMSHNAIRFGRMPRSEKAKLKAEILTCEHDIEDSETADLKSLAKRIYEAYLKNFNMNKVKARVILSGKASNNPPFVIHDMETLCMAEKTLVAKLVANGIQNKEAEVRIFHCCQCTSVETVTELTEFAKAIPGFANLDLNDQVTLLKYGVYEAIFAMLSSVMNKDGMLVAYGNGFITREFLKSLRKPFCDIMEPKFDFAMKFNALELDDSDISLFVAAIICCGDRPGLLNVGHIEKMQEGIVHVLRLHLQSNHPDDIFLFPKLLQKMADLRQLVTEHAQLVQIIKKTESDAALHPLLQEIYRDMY
Source text: (§1) Compounds may be screened for functional potency in transient transfection assays in CV-1 cells for their ability to activate the PPAR subtypes (transactivation assay). A previously established chimeric receptor system was utilized to allow comparison of the relative transcriptional activity of the receptor subtypes on the same synthetic response element and to prevent endogenous receptor activation from complicating the interpretation of results. See, for example, Lehmann, J. M.; Moore, L. B.; Smith-Oliver, T. A; Wilkinson, W. O.; Willson, T. M.; Kliewer, S. A., An antidiabetic thiazolidinedione is a high affinity ligand for peroxisome proliferator-activated receptor […], J. Biol. Chem., 1995, 270, 12953-6. The ligand binding domains for murine and human PPAR-alpha, PPAR-gamma, and PPAR-delta are each fused to the yeast transcription factor GAL4 DNA binding domain. CV-1 cells were transiently transfected with expression vectors for the respective PPAR chimera along with a reporter construct containing four or five copies of the GAL4 DNA binding site driving expression of luciferase. After 8-16 h, the cells are replated into multi-well assay plates and the media is exchanged to phenol-red free DME medium supplemented with 5% delipidated calf serum. 4 hours after replating, cells were treated with either compounds or 1% DMSO for 20-24 hours. Luciferase activity was then assayed with Britelite (Perkin Elmer) following the manufacturer's protocol and measured with either the Perkin Elmer Viewlux or Molecular Devices Acquest (see, for example, Kliewer, S. A., et. al. Cell 1995, 83, 813-819). Rosiglitazone is used as a positive control in the PPARγ assay. Wy-14643 and GW7647 are used as positive controls in the PPARα assay. GW501516 is used as the positive control in the PPARδ assay.

[2] = molecular target: T2, PPAR-delta ligand binding domain fused to GAL4 DNA binding domain (UniProt Q03181); experiment: Transient transfection transactivation assay in CV-1 cells, PPAR-delta (GAL4 chimera, luciferase reporter)
T2 sequence (Q03181 1-441): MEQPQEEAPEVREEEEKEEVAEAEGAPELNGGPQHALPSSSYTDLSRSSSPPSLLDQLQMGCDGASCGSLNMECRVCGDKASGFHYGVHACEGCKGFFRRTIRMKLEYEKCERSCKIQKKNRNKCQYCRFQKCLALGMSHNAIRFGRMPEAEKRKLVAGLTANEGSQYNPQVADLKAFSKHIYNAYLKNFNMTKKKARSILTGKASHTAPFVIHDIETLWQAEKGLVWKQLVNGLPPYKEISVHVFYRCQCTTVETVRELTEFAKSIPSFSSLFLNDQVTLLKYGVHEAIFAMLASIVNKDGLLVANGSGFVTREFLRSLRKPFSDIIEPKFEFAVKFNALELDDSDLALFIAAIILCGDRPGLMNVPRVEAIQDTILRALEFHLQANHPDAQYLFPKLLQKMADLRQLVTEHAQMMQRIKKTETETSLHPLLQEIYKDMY
Source text: as §1

[3] = molecular target: T3, PPAR-gamma ligand binding domain fused to GAL4 DNA binding domain (UniProt P37231); experiment: Transient transfection transactivation assay in CV-1 cells, PPAR-gamma (GAL4 chimera, luciferase reporter)
T3 sequence (P37231 1-505): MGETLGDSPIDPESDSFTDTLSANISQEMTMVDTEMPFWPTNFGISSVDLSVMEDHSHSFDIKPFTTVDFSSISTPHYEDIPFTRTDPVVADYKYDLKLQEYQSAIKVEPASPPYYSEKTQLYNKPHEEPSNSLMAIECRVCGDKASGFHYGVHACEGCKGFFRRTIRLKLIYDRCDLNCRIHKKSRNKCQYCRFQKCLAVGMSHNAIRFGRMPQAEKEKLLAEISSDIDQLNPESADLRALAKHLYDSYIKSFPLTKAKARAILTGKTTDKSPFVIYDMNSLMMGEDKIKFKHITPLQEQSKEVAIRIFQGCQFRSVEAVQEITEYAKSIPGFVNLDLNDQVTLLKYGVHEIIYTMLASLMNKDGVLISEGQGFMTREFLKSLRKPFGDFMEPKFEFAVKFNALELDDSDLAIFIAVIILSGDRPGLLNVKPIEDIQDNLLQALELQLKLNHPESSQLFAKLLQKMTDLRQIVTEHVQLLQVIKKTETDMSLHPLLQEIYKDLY
Source text: as §1

SMILES	EC50 [1]	EC50 [2]	EC50 [3]
O=C(O)C1Cc2cccc(S(=O)(=O)N3CCN(C(=O)Cc4ccc(OC(F)(F)F)cc4)CC3)c2C1 (stereo not drawn) [Example 19, 4-(4-(2-(4-(trifluoromethoxy)phenyl)acetyl)piperazin-1-ylsulfonyl)-2,3-dihydro-1H-indene-2-carboxylic acid]	> 100 µM	5 to 100 µM	5 to 100 µM
O=C(O)C1Cc2cccc(S(=O)(=O)N3CCN(C(=O)Cc4ccc(C(F)(F)F)cc4)CC3)c2C1 (stereo not drawn) [Example 20, 4-(4-(2-(4-(trifluoromethyl)phenyl)acetyl)piperazin-1-ylsulfonyl)-2,3-dihydro-1H-indene-2-carboxylic acid]	> 100 µM	5 to 100 µM	5 to 100 µM
O=C(O)C1Cc2cccc(S(=O)(=O)N3CCN(CCc4ccc(C(F)(F)F)cc4)CC3)c2C1 (stereo not drawn) [Example 21, 4-(4-(4-(trifluoromethyl)phenethyl)piperazin-1-ylsulfonyl)-2,3-dihydro-1H-indene-2-carboxylic acid]	5 to 100 µM	< 5 µM	5 to 100 µM
O=C(O)C1Cc2cccc(S(=O)(=O)N3CCN(CCCc4ccc(OC(F)(F)F)cc4)CC3)c2C1 (stereo not drawn) [Example 22, 4-(4-(3-(4-(Trifluoromethoxy)phenyl)propyl)piperazin-1-ylsulfonyl)-2,3-dihydro-1H-indene-2-carboxylic acid]	5 to 100 µM	< 5 µM	< 5 µM
C[C@@H]1CN(CCc2ccc(SC(F)(F)F)cc2)C[C@H](C)N1S(=O)(=O)c1cccc2c1CC(C(=O)O)C2 (stereo partly drawn) [Example 23, 4-((cis)-2,6-Dimethyl-4-(4-(trifluoromethylthio)phenethyl)piperazin-1-ylsulfonyl)-2,3-dihydro-1H-indene-2-carboxylic acid]	5 to 100 µM	< 5 µM	5 to 100 µM
C[C@@H]1CN(CCc2ccc(Cl)cc2)C[C@H](C)N1S(=O)(=O)c1cccc2c1CC(C(=O)O)C2 (stereo partly drawn) [Example 24, 4-(4-(4-chlorophenethyl)-(cis)-2,6-dimethylpiperazin-1-ylsulfonyl)-2,3-dihydro-1H-indene-2-carboxylic acid]	> 100 µM	< 5 µM	> 100 µM
C[C@@H]1CN(CC2(c3ccc(Cl)cc3)CC2)C[C@H](C)N1S(=O)(=O)c1cccc2c1CC(C(=O)O)C2 (stereo partly drawn) [Example 25, 4-(4-((1-(4-chlorophenyl)cyclopropyl)methyl)-(cis)-2,6-dimethylpiperazin-1-ylsulfonyl)-2,3-dihydro-1-H-indene-2-carboxylic acid]	> 100 µM	< 5 µM	> 100 µM
C[C@@H]1CN(CCc2ccc(C(F)(F)F)c(F)c2)C[C@H](C)N1S(=O)(=O)c1cccc2c1CC(C(=O)O)C2 (stereo partly drawn) [Example 26, 4-(4-(3-Fluoro-4-(trifluoromethyl)phenethyl)-(cis)-2,6-dimethylpiperazin-1-ylsulfonyl)-2,3-dihydro-1H-indene-2-carboxylic acid]	> 100 µM	< 5 µM	> 100 µM
C[C@@H]1CN(CCc2ccc(Cl)c(Cl)c2)C[C@H](C)N1S(=O)(=O)c1cccc2c1CC(C(=O)O)C2 (stereo partly drawn) [Example 27]	> 100 µM	< 5 µM	> 100 µM
C[C@@H]1CN(CC(c2ccc(Cl)cc2)c2ccc(Cl)cc2)C[C@H](C)N1S(=O)(=O)c1cccc2c1CC(C(=O)O)C2 (stereo partly drawn) [Example 28, 4-(4-(2,2bis(4-Chlorophenyl)ethyl)-(cis)-2,6-dimethylpiperazin-1-ylsulfonyl)-2,3-dihydro-1H-indene-2-carboxylic acid]	> 100 µM	> 100 µM	> 100 µM

Reference: patent US20070270434A1, “SULFONYL-SUBSTITUTED BICYCLIC COMPOUNDS AS MODULATORS OF PPAR” (KALYPSYS, INC., priority 2006, published 2007)
